Assay results taken from a melting point compilation (Tetko et al.; mined from patent text by program, amines drawn as free bases though some values may be those of a salt).

| melting point | Compound |
| --- | --- |
| 204 to 205 °C | CC(=O)c1cccn1N1C(=O)c2ccccc2C1=O |
| 147 to 149 °C | CC(=O)NC(=O)CSC(c1ccccc1)(c1ccccc1)c1ccccc1 |
| 153 to 155 °C | CN(C)CCNc1cc(Oc2ccc3c(C(=O)Nc4cc(C(C)(C)C)nn4-c4ccc(F)cc4)cccc3c2)ncn1 |
| 65 to 69 °C | CN(CCCCCCNC(=O)NCCCOc1cccc(CN2CCCCC2)c1)CCN(Cc1ccc(F)cc1)c1ccccn1 |
| 134 to 135 °C | FC(F)(F)c1cccc(N=c2ccn3ccccc3c2)c1 |
| 112 to 115 °C | COC(=O)Cc1cc(Oc2nn(C)c(C(F)(F)F)c2Cl)ccc1[N+](=O)[O-] |
| 155 to 158 °C | CCCc1c(OCC(O)COc2cc(NC(=O)c3nnn[nH]3)c(C)cc2Br)ccc(C(C)=O)c1O (configuration not stated) |
| 235 to 237 °C | O=C(Nc1ccc(O)cc1O)c1cc(Cl)c(O)c(Cl)c1 |
| 147 to 148 °C | COCCOc1ccc(-c2nc(C(=O)Nc3nccs3)c(-c3ccc(Cl)cc3)[nH]2)cc1 |
| 110 °C | COc1ccc2c(c1)-c1c(cc(C)n1C[C@@H](C)O)C2 |
| 132 to 133 °C | COc1ccc(C2=NN(Cc3ccccc3O)C(=O)[C@H]3CCCC[C@@H]23)cc1OC (relative stereo) |
| 222 to 224 °C | COCc1nnc(-c2cccnc2)n1-c1c(Cl)c(Cl)cc2[nH]c(=O)c(=O)[nH]c12 |
| 258 to 260 °C | O[C@H]1CC[C@H](Nc2nccc(-c3c[nH]c4ccccc34)n2)CC1 |
| 61 to 86 °C | COc1ccc(OC)c(C(=O)N2CCc3cc(O)ccc3C2)c1 |
| 240 to 242 °C | C=CCNc1c(C(=O)O)cnc2cn[nH]c12 |
| 243 to 244 °C | CC(NC(=O)Cc1cc(F)cc(F)c1)C(=O)NC1C(=O)NCc2ccccc21 (configuration not stated) |
| 156 to 157 °C | COc1ccc(C(=O)Cc2c(Cl)cncc2Cl)c2c1OC(c1ccccc1)(c1ccccc1)O2 |
| 112 to 114 °C | CCOC(=O)N1CCC(Nc2ccc(Cl)cc2C(=O)c2ccccc2F)CC1 |
| 258 to 260 °C | Nc1sc2c(c1C(=O)c1ccc(Cl)c3ccccc13)CCC2 |
| 112 to 114 °C | CCOC(=O)Cc1c(C(F)(F)F)c2ccc(O)cc2oc1=O |
| 251 to 252 °C | Cc1nc2c(O)cccn2c1C=O |
| 158 to 161 °C | CC1(C)COC(=N)N1c1nc(-c2ccc(C#N)cc2)cs1 |
| 120 to 121 °C | O=C(O)[C@H](Cc1ccc(F)cc1)[C@@H](O)c1ccc(C(F)(F)F)cc1 (racemic) |
| 114 to 116 °C | COc1ccc(-c2sc3cc(OC)ccc3c2C(=O)c2ccc(O)cc2)cc1 |

| melting point | Compound |
| --- | --- |
| 177 to 178 °C | CC(C)(C)OC(=O)Nc1ccc(CC(=O)N2CCC(c3[nH]nc4c3C(=O)c3c(NC(=O)NN5CCOCC5)cccc3-4)CC2)cc1 |
| 145 to 148 °C | CC(C)=CCN(C(=O)OC(C)(C)C)c1ccc(OC2CCN(C(=O)OC(C)(C)C)CC2)cc1 |
| 199 °C | CCc1nc2ncnn2c(N)c1CCCCC(F)=C(F)F |
| 104 to 106 °C | COC(=O)CCCC(=O)c1ccc(O)c(O)c1 |
| 87 °C | CNc1nc(CO)ccc1C |
| 127 to 128 °C | CC(=O)Nc1ccc(F)c(F)c1 |
| > 250 °C | Nc1nc(N)c2c(n1)NCC(CCc1ccc(C(=O)N[C@@H](CCC(=O)O)C(=O)O)cc1)C2 (some centres not stated) |
| 110 to 112 °C | C[Si](C)(C)C#Cc1ccc(C(=O)OCc2ccccc2)cc1OCc1ccccc1 |
| 184 to 187 °C | Nc1nc2c(ncn2COCCOCCO)c(=O)[nH]1 |
| 149 to 157 °C | O=[N+]([O-])c1cc(C(F)(F)F)c(Br)cc1-n1ccnc1 |
| 173 to 175 °C | O=C(O)COc1ccc(C(=O)c2cccc3ccccc23)c(Cl)c1Cl |
| 81 to 82 °C | CCCCCS(=O)(=O)NC(=O)CCc1ccc(OCCOC)cc1OCC1CCCCC1 |
| 110 to 111 °C | O[C@H]1CC[C@H](c2ccc(Br)cc2)CC1 |
| 245 °C | CN1CCN(c2ccc(-c3[nH]nc4c3C(=O)c3c(NC(=O)NN5CCOCC5)cccc3-4)cc2)CC1 |
| 103 to 104 °C | COC(=O)NCCOC(=O)C(C)Oc1ccc(Oc2cnc3cc(Cl)ccc3n2)cc1 (configuration not stated) |
| 165 to 167 °C | COc1ccc(N2CCN(c3c(C)c(C)c4c(c3C)CC(C)(CN3CCC5(CC3)OCCO5)O4)CC2)cc1 (configuration not stated) |
| 56.6 to 58 °C | CC(C)NCC(O)COc1ccc2c(c1)CCN(C=O)C2 (configuration not stated) |
| 148 °C | C=C(CC)C(=O)c1cc2c(c(Cl)c1Cl)OC(C(=O)O)C2 (configuration not stated) |
| 44.4 to 46.9 °C | N#CC1(CCCCCCCCCCCCC2(C(=O)O)CC2)CC1 |
| 111 to 114 °C | CN(C)C(=O)CC(N)=S |
| 116 to 117 °C | C=CC(=O)NC(C)(C)c1ccc(OCc2ccccc2)cc1 |
| 307 to 309 °C | Cn1cc(C2=C(c3c4n(c5ccccc35)CCC(C(N)=O)C4)C(=O)OC2=O)c2ccccc21 (configuration not stated) |
| 361 to 363 °C | Cc1sc2nc3ccc(C(N)=O)cn3c(=O)c2c1C |
| 66 to 68 °C | C[C@@H]1O[C@@]1(Cn1cncn1)c1ccc(F)cc1F (racemic) |

| melting point | Compound |
| --- | --- |
| 150 to 151 °C | OC1CSC(Sc2ccccc2)C(O)C1O (configuration not stated) |
| 177 to 178 °C | CN(C)c1ccc(C=Cc2cc3cc(O)ccc3o2)cc1 |
| 163 to 164 °C | O=C(O)CCN(C1(C(=O)NO)CCCC1)S(=O)(=O)c1ccc(-c2ccc(F)cc2)cc1 |
| 221 to 222 °C | COCn1nnc(NC(=O)C2c3ccccc3Oc3ccccc32)n1 |
| 260 to 263 °C | CC(C)(C(=O)O)n1c(=O)[nH]c2cc(Cl)ccc2c1=O |
| 137 to 140 °C | NC(=O)Cc1c[nH]c2ccc(OCc3ccccc3)cc12 |
| 62 to 70 °C | Cc1cc(SC2=C(O)CC(CCc3ccoc3)(C(C)C)OC2=O)c(C(C)(C)C)cc1CO (configuration not stated) |
| 231 °C | COc1cc(C(=O)c2nc(NS(C)(=O)=O)c3ccccn23)ccc1[N+](=O)[O-] |
| 202 to 203 °C | O=C(c1ccccc1)c1cnn2c(-c3cccnc3)ccnc12 |
| 90 to 92 °C | O=[N+]([O-])c1ccccc1N1CCN(Cc2ccccc2)CCN1 |
| > 300 °C | COc1ccc(-c2n[nH]c3c2c(=O)n(-c2ccccc2)c2ncccc32)cc1 |
| 95 to 97 °C | COc1ccc(C2(CCN3CCC(C(O)(c4ccccc4)c4ccccc4)CC3)CCN(C(=O)c3cc(OC)c(OC)c(OC)c3)C2)cc1OC (configuration not stated) |
| 119 to 120 °C | O=C(C(=O)c1ccc(Cl)cc1)c1ccncc1 |
| 84 to 86 °C | c1ccc2sc(SSN(C3CCCCC3)C3CCCCC3)nc2c1 |
| 122 to 123 °C | COC(=O)c1ccc(-c2nc(-c3ccccc3C(F)(F)F)cs2)cc1 |
| 162 °C | COc1cc2c(cc1OC)OC(C#N)C2 (configuration not stated) |
| 145 to 146 °C | CNC(=O)N(O)C(C)C#Cc1ccc(Br)cc1 (configuration not stated) |
| 158 to 160 °C | O=[N+]([O-])c1ccc(OCc2ccccc2)c2cnsc12 |
| 190 °C | COc1ccc(CN2C(=O)C(C)(c3cc(NC=O)ccc3Cl)c3cc(Cl)ccc32)c(OC)c1 (configuration not stated) |
| 98 to 100 °C | O=C(O)c1sccc1OC(F)F |
| 224 to 227 °C | CN1CCN(C(=O)c2cnn(C)c2C(=O)Nc2ccn3nc(-c4cccc(F)c4)nc3c2)CC1 |
| 96 to 98 °C | CC(C)(C)OC(=O)CN(C(=O)CNC(=O)Nc1cccc(CC(=O)O)c1)c1ccccc1C(=O)c1ccccc1 |
| 95 to 98 °C | CC(C)(C)OC(=O)N[C@H]1CC[C@H](CCN2CCCN(c3cccc(Cl)c3Cl)CC2)CC1 |
| 191 to 192 °C | COc1ccc(C(=O)Nc2ccccc2NC(=O)c2ccc(OC)c(OC)c2)cc1OC |

| melting point | Compound |
| --- | --- |
| 141 to 143 °C | Cc1csc(C(=O)NN)c1N |
| 243 to 246 °C | CS(=O)(=O)Nc1cc2occc(=O)c2cc1Oc1ccccc1C(=O)O |
| 96 to 98 °C | Nc1nc(F)cc(OCc2ccccc2)n1 |
| 218 to 221 °C | CC(=O)Nc1cnc(Br)c(N)n1 |
| 53 to 54 °C | COc1cc(C)nc(-n2ccnc2)n1 |
| 184 °C | COc1ccc2c(c1)c(-c1cc3c(OC)ncnc3[nH]1)cn2C |
| 160 to 162 °C | C(=C(/c1ccccc1)n1c2ccccc2c2ccccc21)/c1ccccc1 |
| 108 to 110 °C | CC(C)OC(=O)Nc1ccc(N)c(N)c1 |
| 215 to 226 °C | O=C(O)CCC(Cc1ccc(Cl)cc1Cl)(C(=O)C=Cc1ccc(Cl)cc1)c1ccccc1 (configuration not stated) |
| 45 to 46 °C | CCCCCCCCCCCCCCCCOCC(COCCCCCCCCCCCCCCCC)NCCC#N |
| 130 °C | CC(C)NCC(O)COc1ccc2c(=O)cc(-c3cc(O)cc(O)c3)oc2c1 (configuration not stated) |
| 300 °C | O=[N+]([O-])c1cncnc1O |
| 85 to 87 °C | O=C1N(Cc2ccc(Cl)s2)c2cccc(Br)c2C12COc1cc3c(cc12)OCO3 (configuration not stated) |
| 187 to 188 °C | COc1ccc(-c2ccc3c(C(=O)N(C)C)c(OC)ccc3c2)cc1 |
| 84 to 87 °C | Cc1cnc(CCCC#N)c(N)c1 |
| 104 to 106 °C | CCOC(=O)CCC(=O)NCc1ccc([N+](=O)[O-])cc1 |
| > 280 °C | Cc1nnc2c(Cl)nc3ccc(Cl)cc3n12 |
| 73 to 75 °C | CCCCC1(CCCC)CCc2c(OCc3ccccc3C(N)=O)cccc2C1O (configuration not stated) |
| 202 °C | O=C(NC(=O)c1c(Cl)cccc1Cl)Nc1ccc(OC(F)(F)F)cc1 |
| 190 to 191 °C | CNC(=O)C[C@@H](NC(=O)OCc1ccccc1)C(C)C |
| 184 °C | Nc1cc(=O)n(Cc2ccccc2C(F)(F)F)[nH]1 |
| 204 to 205 °C | Cc1cc(-c2nc3c(F)c(F)ccc3s2)ccc1N |

| Compound | melting point |
| --- | --- |
| COc1ccccc1-c1cccc(-n2cnc3cc(C(O)C#N)ccc32)c1 (configuration not stated) | 116 to 124 °C |
| c1ccc2c(c1)CNc1ccccc1O2 | 74 to 76 °C |
| CN1C(=O)CC(=O)N(c2ccccc2)c2ccccc21 | 144 to 146 °C |
| CCOC(=O)c1cn2c(n1)CN=C(c1ccccn1)c1cc(Br)ccc1-2 | 227 to 230 °C |
| O=C(c1cc(Cc2c[nH]cn2)ccc1O)N1CCCC1 | 96 to 98 °C |
| CC(C)OC(=O)c1nnc2n1-c1ccc(Cl)cc1C(c1ccccc1Cl)=NC2 | 229 to 230 °C |
| CC(=O)OC1CC2CCC3C(CCC4(C)C(O)C(N5CCCCC5)CC34)C2(C)CC1N1CCCCC1 (configuration not stated) | 183 °C |
| c1ccc(CC23CCN(CC2)CC3)cc1 | 48 °C |
